The values below come from patent publication US20130231292A1, “Synergistic anti-proliferation activity of TAS-108 with mTOR inhibitors against cancer cells” (priority 2012, published 2013).

In general, GI50 refers to the concentration that inhibits growth by half.

For one data set, the system named is T-47D. In words: Combination screen of TAS-108 with a second compound, CellTiter-Glo. The note with it: in combination with TAS-108. (Cellular ATP, detected with luciferase, serves as a proxy for viable cell number.)
Another data set concerns BT-549. Described as above. Format: cell-based, human. The note with it: BT-549, in combination with TAS-108.
For another data set, the system named is MDA-MB-468. The data set is described as above. To be noted: MDA-MB-468, in combination with TAS-108.
Data set [1] deals with human mammary carcinoma cell lines. In words: Combination screen of TAS-108 with a second compound, all six breast lines. The note with it: number of the six breast cell lines with synergy, in combination with TAS-108.
Method: (§1) Cells were treated with compounds alone or in combination for three days and CellTiter-Glo® Luminescent Cell Viability Assay (Promega Corp.) was used as the endpoint to measure cell viability.
(§2) Cells were cultured in RPMI with 10% fetal bovine serum and used between passage 2 and passage 20.
(§3) Other compounds used were purchased from commercial sources (Sigma, AK Scientific). 40 mM Compound stocks in 100% DMSO were made. Master plates were made with Janus (PerkinElmer), then further diluted and added to the cell plates with Matrix Platemate (Thermo) on Day 0.
(§4) CellTiter-Glo® Luminescent Cell Viability Assay (Promega Corp.) was used to measure ATP as an indicator of viable cells on Day 3 using Envision (PerkinElmer) and back up plate reader Analyst HT (MDS) and Gen5 (BioTek).
(§5) Relative Luminescent Units (RLU) were plotted against corresponding drug concentrations and fitted with a standard four parameter sigmoidal curve with custom coded R program. Percentage growth inhibition is calculated as: [(Ti−Tz)/(C−Tz)]×100 for concentrations for which Ti≧Tz and [(Ti−Tz)/Tz]×100 for concentrations for which Ti<Tz.
(§6) Twenty-five doses were tested for each pair of combinations.
(§7) N: no synergistic effect; Y: synergistic effect; y: weak synergistic effect.
Data set [2] relates to MCF7. In words: Combination screen of TAS-108 with a second compound, CellTiter-Glo. To be noted: MCF7, in combination with TAS-108.
Method: as §1, §2, §3, §4, §5, §6, §7
The test system of the next data set is MDA-MB-231. The description is as above. The note with it: MDA-MB-231, in combination with TAS-108.
Another data set concerns HS 578T. Described as above. To be noted: in combination with TAS-108.
Data set [3] deals with breast carcinoma cells with aromatose inhibitor resistant characteristics. The note with it: aromatase inhibitor resistant characteristics; cited from earlier work.
The next data set relates to BT549. In words: CellTiter-Glo cell viability assay, single agents, three days. It is filed as cell-based. To be noted: Homo sapiens, BT-549, 72 h.
For data set [4] the following is noted: compared to Tamoxifen; cited from earlier work.
The subject of data set [5] is Tamoxifen-sensitive and Tamoxifen-resistant breast carcinomas. To be noted: in vitro and in vivo; cited from earlier work.
Data set [6] relates to MCF7. In words: CellTiter-Glo cell viability assay, single agents, three days. Format: cell-based. The note with it: Homo sapiens, 72 h.
The next data set relates to MDAMB231. Described as above. It is filed as cell-based. To be noted: Homo sapiens, MDA-MB-231, 72 h.
The conditions of data set [7]: Phase II clinical trial; cited from earlier work.
For data set [8] the following is noted: compared to Tamoxifen; cited from earlier work. The source holds these as a separate data set.
Another data set deals with HS578T. In words: CellTiter-Glo cell viability assay, single agents, three days. Format: cell-based. To be noted: Homo sapiens, Hs-578T, 72 h, HS578T.
A further data set has as its system T47D. Described as above. Format: cell-based. The note with it: Homo sapiens, 72 h.
In the next data set the test system is MDAMB468. Described as above. It is filed as cell-based. To be noted: Homo sapiens, MDA-MB-468, 72 h.
Setting [9] is: highest dose tested, read-out: Max Inhibition.
Setting [10] is: three days, CellTiter-Glo, read-out: GI50.

Method for HS 578T: as §1, §2, §3, §4, §5, §6, §7
Method for MDA-MB-231: as §1, §2, §3, §4, §5, §6, §7
Method for MDA-MB-468: as §1, §2, §3, §4, §5, §6, §7
Method for T-47D: as §1, §2, §3, §4, §5, §6, §7

Turning to `CNC(=O)c1cc(Oc2ccc(NC(=O)Nc3ccc(Cl)c(C(F)(F)F)c3)cc2)ccn1` [Sorafenib], the “Synergistic effect of TAS 108 paired with compound” value in the data set on T-47D, in the data set on BT-549, in the data set with MDA-MB-468, in the data set with MCF7 [2], in the data set on MDA-MB-231 and with HS 578T was “N” throughout. Besides, the “Synergy #” value in data set [1] was determined as 0.

Regarding `CCN(CC)Cc1ccc(OCC[C@H]2CC[C@H]3[C@@H]4[C@H](C)Cc5cc(O)ccc5[C@H]4CC[C@]23C)c(OC)c1` [TAS-108, (7α)-21-[4-[(Diethylamino)methyl]-2-methoxyphenoxy]-7-methyl-19-norpregna-1,3,5(10)-trien-3-ol 2-hydroxy-1,2,3-propanetricarboxylate], in data set [3], the “growth of breast carcinoma cells” value was “inhibits the growth”. In addition, the Emax came out at 100% in the data set with BT549 (BT549, highest dose tested, read-out: Max Inhibition); 99% with MCF7 [6] (MCF7, highest dose tested, read-out: Max Inhibition); 100% in the data set with MDAMB231 (MDAMB231, highest dose tested, read-out: Max Inhibition); 100% in the data set on HS578T (setting [9]); 100% in the data set with T47D (setting [9]); 100% in the data set with MDAMB468 (MDAMB468, highest dose tested, read-out: Max Inhibition). In addition, the 50% growth inhibitory concentration (GI50) in the data set on BT549 (BT549, three days, CellTiter-Glo) turned out to be 13 µM; in the data set on MCF7 [6] (MCF7, three days, CellTiter-Glo, read-out: GI50), 10 µM; in the data set with MDAMB231 (MDAMB231, three days, CellTiter-Glo), 9.3 µM; in the data set with HS578T (setting [10]), 8.2 µM; with T47D (setting [10]), 11 µM; in the data set on MDAMB468 (MDAMB468, three days, CellTiter-Glo), 1.8 µM. Besides, in data set [4], the bone density result is listed as “protects against reductions in bone density, similar to Tamoxifen”. Moreover, in [5], the anti-tumor activity result is listed as “potent anti-tumor activity”. For the same molecule, in [7], the clinical benefit result was “provided clinical benefits”. Further, the tolerability entry in data set [7] is reported as “well tolerated”. The uterotrophic activity entry in data set [8] is reported as “significantly less uterotrophic activity compared to Tamoxifen”.
